Laboratory results from article PMC9150124, “Design of a Potent, Selective, and Brain-Penetrant Inhibitor of Wnt-Deactivating Enzyme Notum by Optimization of a Crystallographic Fragment Hit” (Journal of Medicinal Chemistry, 2022).

Key:
Assay in all cases: SelectScreen kinase profiling, SSBK ZLyte SP Technology
Format in all cases: biochemical
[1] = target: kinase named in conditions (Homo sapiens, UniProt O15075); conditions: DCAMKL1 (DCLK1), 10 μM
Protocol: (§1) Kinase selectivity screening was performed by Thermo Fisher Scientific (Paisley, U.K.) in their SelectScreen Biochemical Kinase Profiling Service. Assay information and data are presented in the Supporting Information.
(§2) Kinase selectivity screening was performed by ThermoFisher Scientific (Paisley, U.K.) in their SelectScreenTM
(§3) Biochemical Kinase Profiling service .

[2] = target: kinase named in conditions (Homo sapiens, UniProt O75676); conditions: RPS6KA4 (MSK2), 10 μM
Protocol: as §1, §2, §3

[3] = target: kinase named in conditions (Homo sapiens, UniProt O96013); conditions: PAK4, 10 μM
Protocol: as §1, §2, §3

[4] = target: kinase named in conditions (Homo sapiens, UniProt O96017); conditions: CHEK2 (CHK2), 10 μM
Protocol: as §1, §2, §3

[5] = target: kinase named in conditions (Homo sapiens, UniProt P00533); conditions: EGFR (ErbB1), 10 μM
Protocol: as §1, §2, §3

[6] = target: kinase named in conditions (Homo sapiens, UniProt P00533, C797S); conditions: EGFR (ErbB1) C797S, 10 μM
Protocol: as §1, §2, §3

[7] = target: kinase named in conditions (Homo sapiens, UniProt P06239); conditions: LCK, 10 μM
Protocol: as §1, §2, §3

[8] = target: kinase named in conditions (Homo sapiens, UniProt P07948); conditions: LYN A, 10 μM
Protocol: as §1, §2, §3

[9] = target: kinase named in conditions (Homo sapiens, UniProt P35916); conditions: FLT4 (VEGFR3), 10 μM
Protocol: as §1, §2, §3

[10] = target: kinase named in conditions (Homo sapiens, UniProt P49674); conditions: CSNK1E (CK1 epsilon), 10 μM
Protocol: as §1, §2, §3

[11] = target: kinase named in conditions (Homo sapiens, UniProt P51813); conditions: BMX, 10 μM
Protocol: as §1, §2, §3

[12] = target: kinase named in conditions (Homo sapiens, UniProt P54646)
Protocol: as §1, §2, §3

[13] = target: kinase named in conditions (Homo sapiens, UniProt P54756); conditions: EPHA5, 10 μM
Protocol: as §1, §2, §3

[14] = target: kinase named in conditions (Homo sapiens, UniProt P80192); conditions: MAP3K9 (MLK1), 10 μM
Protocol: as §1, §2, §3

[15] = target: kinase named in conditions (Homo sapiens, UniProt Q00537); conditions: CDK17/cyclin Y, 10 μM
Protocol: as §1, §2, §3

[16] = target: kinase named in conditions (Homo sapiens, UniProt Q05655); conditions: PRKCD (PKC delta), 10 μM
Protocol: as §1, §2, §3

[17] = target: kinase named in conditions (Homo sapiens, UniProt Q12866); conditions: MERTK (cMER), 10 μM
Protocol: as §1, §2, §3

[18] = target: kinase named in conditions (Homo sapiens, UniProt Q13131)
Protocol: as §1, §2, §3

[19] = target: kinase named in conditions (Homo sapiens, UniProt Q13164); conditions: MAPK7 (ERK5), 10 μM
Protocol: as §1, §2, §3

[20] = target: kinase named in conditions (Homo sapiens, UniProt Q13237); conditions: PRKG2 (PKG2), 10 μM
Protocol: as §1, §2, §3

[21] = target: kinase named in conditions (Homo sapiens, UniProt Q13554); conditions: CAMK2B (CaMKII beta), 10 μM
Protocol: as §1, §2, §3

[22] = target: kinase named in conditions (Homo sapiens, UniProt Q14164); conditions: IKBKE (IKK epsilon), 10 μM
Protocol: as §1, §2, §3

[23] = target: kinase named in conditions (Homo sapiens, UniProt Q15139); conditions: PRKD1 (PKC mu), 10 μM
Protocol: as §1, §2, §3

[24] = target: kinase named in conditions (Homo sapiens, UniProt Q16512); conditions: PKN1 (PRK1), 10 μM
Protocol: as §1, §2, §3

[25] = target: kinase named in conditions (Homo sapiens, UniProt Q6DT37); conditions: CDC42 BPG (MRCKG), 10 μM
Protocol: as §1, §2, §3

[26] = target: kinase named in conditions (Homo sapiens, UniProt Q8IW41); conditions: MAPKAPK5 (PRAK), 10 μM
Protocol: as §1, §2, §3

[27] = target: kinase named in conditions (Homo sapiens, UniProt Q96PY6); conditions: NEK1, 10 μM
Protocol: as §1, §2, §3

[28] = target: kinase named in conditions (Homo sapiens, UniProt Q9H4B4); conditions: PLK3, 10 μM
Protocol: as §1, §2, §3

[29] = target: kinase named in conditions (Homo sapiens, UniProt Q9UBS0); conditions: RPS6KB2 (p70S6Kb), 10 μM
Protocol: as §1, §2, §3

[30] = target: kinase named in conditions (Homo sapiens, UniProt Q9UK32); conditions: RPS6KA6 (RSK4), 10 μM
Protocol: as §1, §2, §3

[31] = target: kinase named in conditions (Homo sapiens, UniProt Q9UPE1); conditions: STK23 (MSSK1), 10 μM
Protocol: as §1, §2, §3

[32] = target: kinase named in conditions (Homo sapiens, UniProt Q9UQM7); conditions: CAMK2A (CaMKII alpha), 10 μM
Protocol: as §1, §2, §3

[33] = target: kinase named in conditions (Homo sapiens, UniProt Q9Y6E0); conditions: STK24 (MST3), 10 μM
Protocol: as §1, §2, §3

Sequence of kinase named in conditions (Homo sapiens, UniProt P54646) (P54646 whole entry): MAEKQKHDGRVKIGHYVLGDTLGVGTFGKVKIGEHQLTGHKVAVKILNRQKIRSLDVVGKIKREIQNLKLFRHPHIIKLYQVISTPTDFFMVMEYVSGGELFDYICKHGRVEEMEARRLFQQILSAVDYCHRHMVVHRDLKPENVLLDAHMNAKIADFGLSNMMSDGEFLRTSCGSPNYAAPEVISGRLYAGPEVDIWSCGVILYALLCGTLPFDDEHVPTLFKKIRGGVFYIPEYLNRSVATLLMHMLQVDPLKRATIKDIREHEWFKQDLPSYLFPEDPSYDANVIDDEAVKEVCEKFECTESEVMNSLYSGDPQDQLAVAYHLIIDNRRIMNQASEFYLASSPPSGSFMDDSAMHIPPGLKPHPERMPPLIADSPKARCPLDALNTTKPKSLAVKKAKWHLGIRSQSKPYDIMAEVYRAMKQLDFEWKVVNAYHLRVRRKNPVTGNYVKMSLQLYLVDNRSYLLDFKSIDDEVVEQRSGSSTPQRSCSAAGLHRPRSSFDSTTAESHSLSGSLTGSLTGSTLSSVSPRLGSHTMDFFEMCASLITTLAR
Sequence of kinase named in conditions (Homo sapiens, UniProt Q13131) (Q13131 whole entry): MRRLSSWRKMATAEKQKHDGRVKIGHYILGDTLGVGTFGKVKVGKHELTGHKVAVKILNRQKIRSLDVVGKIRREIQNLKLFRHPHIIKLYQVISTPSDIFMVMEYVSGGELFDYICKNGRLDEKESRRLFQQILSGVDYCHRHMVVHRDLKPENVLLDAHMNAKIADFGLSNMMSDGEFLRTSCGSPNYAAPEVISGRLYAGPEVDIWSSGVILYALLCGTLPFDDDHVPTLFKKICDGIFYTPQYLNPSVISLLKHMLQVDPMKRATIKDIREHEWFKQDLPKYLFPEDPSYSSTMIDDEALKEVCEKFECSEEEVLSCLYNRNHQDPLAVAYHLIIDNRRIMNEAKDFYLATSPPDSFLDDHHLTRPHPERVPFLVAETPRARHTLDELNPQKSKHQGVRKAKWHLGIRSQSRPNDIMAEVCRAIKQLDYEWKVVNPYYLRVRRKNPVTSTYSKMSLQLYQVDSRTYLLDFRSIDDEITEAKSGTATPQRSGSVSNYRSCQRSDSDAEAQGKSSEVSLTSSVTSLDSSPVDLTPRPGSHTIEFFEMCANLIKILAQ
Sequence of kinase named in conditions (Homo sapiens, UniProt P35916) (P35916 25-1363): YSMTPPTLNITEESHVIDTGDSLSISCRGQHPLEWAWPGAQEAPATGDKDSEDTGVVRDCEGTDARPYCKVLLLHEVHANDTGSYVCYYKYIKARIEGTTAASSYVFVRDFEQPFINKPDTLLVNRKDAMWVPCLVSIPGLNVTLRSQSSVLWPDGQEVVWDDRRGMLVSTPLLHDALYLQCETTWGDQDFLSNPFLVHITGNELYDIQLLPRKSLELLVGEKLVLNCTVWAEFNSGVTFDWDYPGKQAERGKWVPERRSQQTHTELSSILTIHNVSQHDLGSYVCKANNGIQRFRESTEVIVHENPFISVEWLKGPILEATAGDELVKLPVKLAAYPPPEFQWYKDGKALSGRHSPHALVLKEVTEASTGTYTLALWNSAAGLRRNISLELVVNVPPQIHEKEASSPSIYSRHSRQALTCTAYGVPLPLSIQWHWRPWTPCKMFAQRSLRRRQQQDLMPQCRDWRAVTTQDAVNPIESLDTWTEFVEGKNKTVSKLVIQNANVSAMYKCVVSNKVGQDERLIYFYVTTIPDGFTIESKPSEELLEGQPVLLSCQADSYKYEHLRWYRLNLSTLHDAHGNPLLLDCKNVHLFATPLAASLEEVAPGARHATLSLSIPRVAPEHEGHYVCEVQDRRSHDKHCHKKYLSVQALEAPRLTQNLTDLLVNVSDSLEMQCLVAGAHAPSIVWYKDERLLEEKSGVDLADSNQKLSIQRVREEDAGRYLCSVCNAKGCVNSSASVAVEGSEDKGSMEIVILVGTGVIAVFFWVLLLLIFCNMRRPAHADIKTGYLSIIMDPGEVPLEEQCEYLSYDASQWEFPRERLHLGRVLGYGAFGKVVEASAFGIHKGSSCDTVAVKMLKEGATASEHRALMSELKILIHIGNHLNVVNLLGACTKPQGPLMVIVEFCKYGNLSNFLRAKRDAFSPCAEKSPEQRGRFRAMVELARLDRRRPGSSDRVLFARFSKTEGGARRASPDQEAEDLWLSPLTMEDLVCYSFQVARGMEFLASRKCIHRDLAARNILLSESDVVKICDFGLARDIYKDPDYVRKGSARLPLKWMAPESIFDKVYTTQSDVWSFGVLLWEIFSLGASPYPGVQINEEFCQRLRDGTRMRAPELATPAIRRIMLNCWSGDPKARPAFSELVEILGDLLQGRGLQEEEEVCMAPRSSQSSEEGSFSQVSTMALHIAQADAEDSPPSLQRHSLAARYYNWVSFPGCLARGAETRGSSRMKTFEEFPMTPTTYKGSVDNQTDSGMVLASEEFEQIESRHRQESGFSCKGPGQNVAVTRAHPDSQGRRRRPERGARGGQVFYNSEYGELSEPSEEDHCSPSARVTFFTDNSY
Sequence of kinase named in conditions (Homo sapiens, UniProt P80192) (P80192 whole entry): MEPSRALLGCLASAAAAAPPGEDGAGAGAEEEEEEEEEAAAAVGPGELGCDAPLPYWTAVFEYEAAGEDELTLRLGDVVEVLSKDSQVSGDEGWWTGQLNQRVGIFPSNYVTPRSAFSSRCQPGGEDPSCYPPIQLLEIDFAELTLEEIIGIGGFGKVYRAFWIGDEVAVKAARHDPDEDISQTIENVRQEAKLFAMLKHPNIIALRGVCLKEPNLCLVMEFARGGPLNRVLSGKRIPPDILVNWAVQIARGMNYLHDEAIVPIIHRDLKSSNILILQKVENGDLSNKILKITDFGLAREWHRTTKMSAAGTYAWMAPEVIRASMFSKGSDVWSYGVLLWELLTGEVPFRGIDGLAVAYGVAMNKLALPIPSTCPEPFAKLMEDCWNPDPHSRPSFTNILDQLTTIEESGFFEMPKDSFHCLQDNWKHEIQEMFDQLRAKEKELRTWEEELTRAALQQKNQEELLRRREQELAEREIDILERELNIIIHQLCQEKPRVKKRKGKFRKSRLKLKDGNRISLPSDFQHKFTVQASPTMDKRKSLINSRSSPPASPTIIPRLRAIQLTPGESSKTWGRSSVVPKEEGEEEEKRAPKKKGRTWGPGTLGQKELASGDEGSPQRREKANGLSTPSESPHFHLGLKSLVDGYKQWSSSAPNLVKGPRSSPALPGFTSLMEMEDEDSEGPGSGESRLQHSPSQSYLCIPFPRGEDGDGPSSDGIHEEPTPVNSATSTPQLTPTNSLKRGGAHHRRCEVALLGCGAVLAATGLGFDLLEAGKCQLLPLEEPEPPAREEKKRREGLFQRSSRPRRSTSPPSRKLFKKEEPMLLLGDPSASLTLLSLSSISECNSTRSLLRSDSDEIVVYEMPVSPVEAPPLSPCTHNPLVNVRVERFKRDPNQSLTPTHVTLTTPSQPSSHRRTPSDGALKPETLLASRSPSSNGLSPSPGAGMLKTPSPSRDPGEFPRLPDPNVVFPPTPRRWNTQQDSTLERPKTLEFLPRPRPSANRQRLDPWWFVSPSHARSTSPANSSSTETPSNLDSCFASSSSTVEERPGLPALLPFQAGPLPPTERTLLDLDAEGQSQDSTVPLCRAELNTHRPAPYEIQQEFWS
Sequence of kinase named in conditions (Homo sapiens, UniProt O15075) (O15075 whole entry): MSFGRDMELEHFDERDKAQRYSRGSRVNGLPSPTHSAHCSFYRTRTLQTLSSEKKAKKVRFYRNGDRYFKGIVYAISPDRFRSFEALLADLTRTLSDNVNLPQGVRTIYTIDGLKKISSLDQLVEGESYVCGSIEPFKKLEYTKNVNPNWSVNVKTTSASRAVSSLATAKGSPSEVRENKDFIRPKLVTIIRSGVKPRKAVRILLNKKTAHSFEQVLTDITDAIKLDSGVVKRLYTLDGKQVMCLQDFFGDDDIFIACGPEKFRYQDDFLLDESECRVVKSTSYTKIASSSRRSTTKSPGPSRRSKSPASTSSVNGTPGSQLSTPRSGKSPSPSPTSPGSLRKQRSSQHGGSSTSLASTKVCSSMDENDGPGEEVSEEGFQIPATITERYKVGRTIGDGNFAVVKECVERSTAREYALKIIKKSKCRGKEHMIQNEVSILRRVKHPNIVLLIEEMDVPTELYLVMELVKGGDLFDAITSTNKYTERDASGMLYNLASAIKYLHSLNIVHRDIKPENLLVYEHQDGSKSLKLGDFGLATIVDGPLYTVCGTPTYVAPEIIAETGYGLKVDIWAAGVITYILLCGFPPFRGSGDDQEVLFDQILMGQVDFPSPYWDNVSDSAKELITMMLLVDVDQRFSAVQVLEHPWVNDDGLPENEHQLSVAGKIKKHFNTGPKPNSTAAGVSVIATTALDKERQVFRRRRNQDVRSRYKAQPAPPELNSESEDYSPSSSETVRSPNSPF
Sequence of kinase named in conditions (Homo sapiens, UniProt Q13237) (Q13237 whole entry): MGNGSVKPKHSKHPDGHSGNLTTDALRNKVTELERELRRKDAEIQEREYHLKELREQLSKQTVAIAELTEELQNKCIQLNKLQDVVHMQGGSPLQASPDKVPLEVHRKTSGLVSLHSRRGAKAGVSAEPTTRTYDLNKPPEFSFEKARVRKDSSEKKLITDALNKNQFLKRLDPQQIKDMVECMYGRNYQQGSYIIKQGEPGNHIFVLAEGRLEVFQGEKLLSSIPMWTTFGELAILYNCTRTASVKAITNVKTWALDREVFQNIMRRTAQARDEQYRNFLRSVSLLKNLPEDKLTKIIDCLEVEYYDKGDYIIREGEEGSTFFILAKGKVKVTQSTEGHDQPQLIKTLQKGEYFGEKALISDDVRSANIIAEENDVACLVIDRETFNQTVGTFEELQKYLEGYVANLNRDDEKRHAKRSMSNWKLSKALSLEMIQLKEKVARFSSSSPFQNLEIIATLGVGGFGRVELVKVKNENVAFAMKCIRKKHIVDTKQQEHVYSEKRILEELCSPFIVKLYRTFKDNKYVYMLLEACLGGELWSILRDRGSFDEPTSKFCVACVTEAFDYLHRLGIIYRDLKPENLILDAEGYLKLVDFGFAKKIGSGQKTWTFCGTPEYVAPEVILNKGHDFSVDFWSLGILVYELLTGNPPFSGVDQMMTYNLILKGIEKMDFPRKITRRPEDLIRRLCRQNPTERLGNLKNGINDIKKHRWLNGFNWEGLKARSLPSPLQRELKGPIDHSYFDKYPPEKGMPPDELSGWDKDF

FC(F)(F)c1c(Cl)ccc(-n2ccnn2)c1Cl [8l, 1-(2,4-Dichloro-3-(trifluoromethyl)phenyl)-1H-1,2,3-triazole]
inhibition at 10 µM [1]: 3%
inhibition at 10 µM [2]: 1%
inhibition at 10 µM [3]: 2%
inhibition at 10 µM [4]: 8%
inhibition at 10 µM [5]: 1%
inhibition at 10 µM [6]: -2%
inhibition at 10 µM [7]: 33%
inhibition at 10 µM [8]: -1%
inhibition at 10 µM [9]: 0%
inhibition at 10 µM [10]: 1%
inhibition at 10 µM [11]: 7%
inhibition at 10 µM ([12]; AMPK (A2/B1/G2), 10 μM): -2%
inhibition at 10 µM ([12]; AMPK (A2/B1/G3), 10 μM): 2%
inhibition at 10 µM ([12]; AMPK (A2/B2/G3), 10 μM): 3%
inhibition at 10 µM ([12]; AMPK A2/B1/G1, 10 μM): 14%
inhibition at 10 µM [13]: 0%
inhibition at 10 µM [14]: -4%
inhibition at 10 µM [15]: 1%
inhibition at 10 µM [16]: -4%
inhibition at 10 µM [17]: 5%
inhibition at 10 µM ([18]; AMPK (A1/B2/G2), 10 μM): 6%
inhibition at 10 µM ([18]; AMPK (A1/B2/G3), 10 μM): 6%
inhibition at 10 µM ([18]; AMPK A1/B1/G1, 10 μM): 14%
inhibition at 10 µM [19]: -3%
inhibition at 10 µM [20]: 8%
inhibition at 10 µM [21]: 4%
inhibition at 10 µM [22]: 11%
inhibition at 10 µM [23]: 11%
inhibition at 10 µM [24]: -1%
inhibition at 10 µM [25]: 2%
inhibition at 10 µM [26]: 6%
inhibition at 10 µM [27]: 1%
inhibition at 10 µM [28]: 5%
inhibition at 10 µM [29]: 4%
inhibition at 10 µM [30]: 0%
inhibition at 10 µM [31]: 0%
inhibition at 10 µM [32]: -2%
inhibition at 10 µM [33]: 5%
